{"source": "patent US20230146455A1", "about": "“TREATMENT OF INFLAMMATORY DISEASES WITH PEPTIDES AND PHARMACEUTICAL COMPOSITIONS” (Yuyu Pharma, Inc., priority 2020, published 2023)", "key": {"[1]": {"assay": "Apparent permeability, 21 day cultured Caco-2 cell monolayer, bi-directional (Example 7)", "type": "in vitro ADME", "conditions": "human, Caco-2, 2 μM, 120 minutes", "procedure": "(§1) 10 mM stock solution of test compound was prepared in DMSO. 10 mM stock was diluted with 100% DMSO to prepare 0.2 mM, 0.2 mM stock was diluted with HBSS buffer to a final concentration of 2 μM.\n(§2) Add 250 μL of DMEM to the basal compartment of 96 well multi-screen Caco-2 plates and seed 12000 cells/well (0.16×10^6 cells/ml) in all the apical wells required and 2 wells with only media as blank without cells. Place the Caco-2 plate in CO2 incubator at 37° C. for proliferation of cells.\n(§3) The utilized media was replenished every alternate day by fresh medium. On 21st day, utilized medium was removed and washed twice with HBSS Buffer and incubated with HBSS buffer 30 min in incubator and initiated the assay.\n(§4) 75 μL of test compound was added to apical wells and 250 μL of HBSS buffer with 1% DMSO was added to basal wells. Samples were collected at 120 min and processed as stated below.\n(§5) 250 μL of test compound was added to basal wells and 75 μL of HBSS buffer with 1% DMSO was added to apical wells. Samples were collected at 120 min and processed as stated below.\n(§6) Single point calibration curve in HBSS buffer was used. 100 μL of supernatant was diluted with 200 μL of water and submitted for LC-MS/MS analysis.\n(§7) Efflux ratio=Papp of basal to apical samples/Papp of apical to basal samples\n(§8) Recovery: {(dQ of Apical+dQ of Basal)/Standard dQ}*100"}, "Caco-2 cells monolayer": {"tested_on": "Caco-2 cells monolayer", "assay": "Apparent permeability, 21 day cultured Caco-2 cell monolayer, bi-directional (Example 7)", "type": "in vitro ADME", "procedure": "as §1, §2, §3, §4, §5, §6, §7, §8"}, "MMP-9": {"tested_on": "MMP-9", "assay": "Example 9 Luminex, LPS hPBMCs: MMP-9", "type": "cell-based, human", "procedure": "Treatment Human PBMCs were pretreated with YY-101, YDE-011 and YDE-043 or reference compound; Xiidra® at various concentration (ranging from 1 nM to 100 uM) for 2 h before stimulation. An equal volume of 0.5% DMSO was used as a vehicle control. Then, the cells were treated with LPS at 5 ug/ml. The supernatants from treated cells were harvested at 24 h and placed in a 96 well for Luminex cytokine & chemokine profiling using a Luminex 200 multiplex assay (Luminex; R&D system, USA).\nThe main study arm with triplicate wells per group in a 24-well plate: • 1. Blank • 2. PBMC: 0.5% DMSO • 3. PBMC+LPS (5 ug/ml) • 4. PBMC+YY-101 100 uM • 5. PBMC+YY-101 10 uM • 6. PBMC+YY-101 1 uM • 7. PBMC+YY-101 0.1 uM • 8. PBMC+YY-101 0.01 uM • 9. PBMC+LPS (5 ug/ml)+Xiidra®100 uM • 10. PBMC+LPS (5 ug/ml)+Xiidra® 10 uM • 11. PBMC+LPS (5 ug/ml)+Xiidra® 1 uM • 12. PBMC+LPS (5 ug/ml)+Xiidra®0.1 uM • 13. PBMC+LPS (5 ug/ml)+Xiidra®0.01 uM • 14. PBMC+LPS (5 ug/ml)+Xiidra®0.001 uM • 15. PBMC+LPS (5 ug/ml)+YY-101 100 uM • 16. PBMC+LPS (5 ug/ml)+YY-101 10 uM • 17. PBMC+LPS (5 ug/ml)+YY-101 1 uM • 18. PBMC+LPS (5 ug/ml)+YY-101 0.1 uM • 19. PBMC+LPS (5 ug/ml)+YY-101 0.01 uM • 20. PBMC+LPS (5 ug/ml)+YY-101 0.001 uM • 21. PBMC+LPS (5 ug/ml)+YDE-011 100 uM • 22. PBMC+LPS (5 ug/ml)+YDE-011 10 uM • 23. PBMC+LPS (5 ug/ml)+YDE-011 1 uM • 24. PBMC+LPS (5 ug/ml)+YDE-011 0.1 uM • 25. PBMC+LPS (5 ug/ml)+YDE-011 0.01 uM • 26. PBMC+LPS (5 ug/ml)+YDE-011 0.001 uM • 27. PBMC+LPS (5 ug/ml)+YDE-043 100 uM • 28. PBMC+LPS (5 ug/ml)+YDE-043 10 uM • 29. PBMC+LPS (5 ug/ml)+YDE-043 1 uM • 30. PBMC+LPS (5 ug/ml)+YDE-043 0.1 uM • 31. PBMC+LPS (5 ug/ml)+YDE-043 0.01 uM • 32. PBMC+LPS (5 ug/ml)+YDE-043 0.001 uM\nMultiplex assay was used to measure 30 cytokines and chemokines. The 1:2, 1:10 and 1:200 diluted cell supernatant and serial dilution of the standard were dispensed into a 96 well plate at 50 ul/well. Then, the pre-mixed cocktail of antibody-coated magnetic beads was dispensed at 50 ul/well and incubated at room temperature for 2 h in a horizontal orbital microplate shaker at 800±500 rpm. The beads were washed using a magnetic device to prevent loss. The biotin-antibody was dispensed in 50 ul of each well and incubated at room temperature for 1 h in a shaker at 800±500 rpm. After washing, streptavidin-PE was added at 50 ul/well and incubated at room temperature for 30 min in a shaker under the same conditions. Finally, after washing, wash buffer (100 ul/well) was added to the plate and incubated in a shaker for 2 min. The Luminex™ 200 setting were set according to the manufacturer's protocol. The data was calculated with a standard five-parameter logistic nonlinear regression analysis of the data (xPonent software 4.2, USA). The levels of cytokine/chemokine are normalized to the live cell counts (1×10^5 cells/mL) and presented as concentrations per mL (pg/mL or ng/mL)."}, "[2]": {"conditions": "PBMC + LPS(5 ug/ml) + 0.001 uM, Mean"}, "[3]": {"conditions": "PBMC + LPS(5 ug/ml) + 0.001 uM, single replicates"}, "[4]": {"conditions": "PBMC + LPS(5 ug/ml) + 0.01 uM, Mean"}, "[5]": {"conditions": "PBMC + LPS(5 ug/ml) + 0.01 uM, single replicates"}, "[6]": {"conditions": "PBMC + LPS(5 ug/ml) + 0.1 uM, Mean"}, "[7]": {"conditions": "PBMC + LPS(5 ug/ml) + 0.1 uM, single replicates"}, "[8]": {"conditions": "PBMC + LPS(5 ug/ml) + 1 uM, Mean"}, "[9]": {"conditions": "PBMC + LPS(5 ug/ml) + 1 uM, single replicates"}, "[10]": {"conditions": "PBMC + LPS(5 ug/ml) + 10 uM, Mean"}, "[11]": {"conditions": "PBMC + LPS(5 ug/ml) + 10 uM, single replicates"}, "[12]": {"conditions": "PBMC + LPS(5 ug/ml) + 100 uM, Mean"}, "[13]": {"conditions": "PBMC + LPS(5 ug/ml) + 100 uM, single replicates"}}, "note": "“And” between values parts separate entries of the source, which are not always exact repeats. Identical values can stand only once. Like-named read-outs stand apart in the source and are kept apart here. Where a SMILES comes first, the peptide text is derived from it. [ ]: non-standard residue; d: D form. Hyp = O=C(O)[C@@H]1C[C@@H](O)CN1", "data": [{"smiles": "CC(C)C[C@H](NC(=O)CNC(=O)[C@H](CC(C)C)NC(=O)[C@H](CCC(N)=O)NC(=O)CNC(=O)[C@@H]1C[C@@H](O)CN1)C(=O)N[C@@H](C)C(=O)NCC(=O)N1CCC[C@H]1C(=O)N[C@@H](CCCCN)C(=O)O", "note": "[YDE-011] (H-[Hyp]GQLGLAGPK-OH)", "values": [{"measurement": "recovery at 120 min, 2 μM", "setting": "[1]; read-out: A to B % Recovery", "value": 15, "unit": "%"}, {"measurement": "recovery at 120 min, 2 μM", "setting": "[1]; read-out: B to A % Recovery", "value": 88.5, "unit": "%"}, {"measurement": "Classification (Caco-2 Permeability)", "setting": "Caco-2 cells monolayer", "value": "LOW"}, {"measurement": "MMP-9 Concentration", "setting": "MMP-9; [2]", "value": 206.3, "unit": "pg/mL"}, {"measurement": "MMP-9 conc/live cell", "setting": "MMP-9; [2]", "value": 39.4, "unit": "pg/10^5"}, {"measurement": "MMP-9 Concentration", "setting": "MMP-9; [3]", "value": "228.2 pg/mL and 186.3 pg/mL and 204.5 pg/mL"}, {"measurement": "MMP-9 conc/live cell", "setting": "MMP-9; [3]", "value": "50.7 pg/10^5 and 32.1 pg/10^5 and 35.3 pg/10^5"}, {"measurement": "MMP-9 Concentration", "setting": "MMP-9; [4]", "value": 180.2, "unit": "pg/mL"}, {"measurement": "MMP-9 conc/live cell", "setting": "MMP-9; [4]", "value": 31.1, "unit": "pg/10^5"}, {"measurement": "MMP-9 Concentration", "setting": "MMP-9; [5]", "value": "174.0 pg/ml (2×) and 192.4 pg/ml"}, {"measurement": "MMP-9 conc/live cell", "setting": "MMP-9; [5]", "value": "27.6 pg/10^5 and 28.1 pg/10^5 and 37.7 pg/10^5"}, {"measurement": "MMP-9 Concentration", "setting": "MMP-9; [6]", "value": 180.2, "unit": "pg/mL"}, {"measurement": "MMP-9 conc/live cell", "setting": "MMP-9; [6]", "value": 31.5, "unit": "pg/10^5"}, {"measurement": "MMP-9 Concentration", "setting": "MMP-9; [7]", "value": "192.4 pg/ml and 174.0 pg/ml (2×)"}, {"measurement": "MMP-9 conc/live cell", "setting": "MMP-9; [7]", "value": "29.2 pg/10^5 and 34.8 pg/10^5 and 30.5 pg/10^5"}, {"measurement": "MMP-9 Concentration", "setting": "MMP-9; [8]", "value": 188.3, "unit": "pg/mL"}, {"measurement": "MMP-9 conc/live cell", "setting": "MMP-9; [8]", "value": 37.5, "unit": "pg/10^5"}, {"measurement": "MMP-9 Concentration", "setting": "MMP-9; [9]", "value": "192.4 pg/ml (2×) and 180.2 pg/ml"}, {"measurement": "MMP-9 conc/live cell", "setting": "MMP-9; [9]", "value": "35.0 pg/10^5 and 37.5 pg/10^5 and 40.1 pg/10^5"}, {"measurement": "MMP-9 Concentration", "setting": "MMP-9; [10]", "value": 190.4, "unit": "pg/mL"}, {"measurement": "MMP-9 conc/live cell", "setting": "MMP-9; [10]", "value": 36.1, "unit": "pg/10^5"}, {"measurement": "MMP-9 Concentration", "setting": "MMP-9; [11]", "value": "186.3 pg/ml (2×) and 198.5 pg/ml"}, {"measurement": "MMP-9 conc/live cell", "setting": "MMP-9; [11]", "value": "34.5 pg/10^5 and 34.2 pg/10^5 and 39.6 pg/10^5"}, {"measurement": "MMP-9 Concentration", "setting": "MMP-9; [12]", "value": 167.8, "unit": "pg/mL"}, {"measurement": "MMP-9 conc/live cell", "setting": "MMP-9; [12]", "value": 27.7, "unit": "pg/10^5"}, {"measurement": "MMP-9 Concentration", "setting": "MMP-9; [13]", "value": "167.8 pg/mL and 174.0 pg/mL and 161.5 pg/mL"}, {"measurement": "MMP-9 conc/live cell", "setting": "MMP-9; [13]", "value": "27.5 pg/10^5 and 28.5 pg/10^5 and 26.9 pg/10^5"}]}]}
